Measured values from paper PMC5047857, “Screening, production, optimization and characterization of β-glucosidase using microbes from shellfish waste” (3 Biotech, 2016).

Test system: T1, β-glucosidase
T1 construct: gene EC 3.2.1.21; native extracellular enzyme, partially purified from culture (ammonium sulfate, dialysis, Sephadex gel filtration); approx. 50 kDa by SDS-PAGE
Experiment: p-nitrophenol release, absorbance at […] nm; plot of activity against substrate concentration
Assay type: biochemical, Proteus mirabilis
Details: partially purified enzyme; substrate of the standard assay (pNPG); pH and temperature of the kinetic run not given

## O=[N+]([O-])c1ccc(O[C@@H]2O[C@H](CO)[C@@H](O)[C@H](O)[C@H]2O)cc1 [pNPG, p-Nitrophenyl-β-D-glucopyranoside]
  Km: 82 µM
